Results taken from the NIST ThermoML archive (doi:10.1016/j.jct.2010.04.013).
Numbers after ± are expanded uncertainties.

Experiment: mn = molality of the nth substance listed, in mol/kg
Conditions: 101 kPa, Liquid; for mass density: Vibrating tube method; for speed of sound: Pulse-echo method

O=S(=O)([O-])C(F)(F)F.[Na+] [sodium trifluoromethanesulfonate] + CO
Conditions | mass density, 283.15 K [kg/m3] | mass density, 288.15 K [kg/m3] | mass density, 293.15 K [kg/m3] | mass density, 298.15 K [kg/m3] | mass density, 303.15 K [kg/m3] | mass density, 308.15 K [kg/m3] | mass density, 313.15 K [kg/m3] | speed of sound, 298.15 K [m/s]
m1 = 0.04581 | 805.004 ± 0.17 | 800.315 ± 0.17 | 795.62 ± 0.17 | 790.91 ± 0.17 | 786.191 ± 0.18 | 781.448 ± 0.18 | 776.675 ± 0.18 | 1102.3 ± 1.2
m1 = 0.05858 | 806.247 ± 0.17 | 801.557 ± 0.17 | 796.863 ± 0.17 | 792.154 ± 0.17 | 787.428 ± 0.18 | 782.688 ± 0.18 | 777.918 ± 0.18 | 1102.5 ± 1.2
m1 = 0.07409 | 807.746 ± 0.17 | 803.057 ± 0.17 | 798.363 ± 0.17 | 793.657 ± 0.17 | 788.931 ± 0.18 | 784.175 ± 0.18 | 779.409 ± 0.18 | 1103 ± 1.2
m1 = 0.08825 | 809.117 ± 0.17 | 804.427 ± 0.17 | 799.733 ± 0.17 | 795.022 ± 0.17 | 790.305 ± 0.17 | 785.561 ± 0.18 | 780.79 ± 0.18 | 1103.2 ± 1.2
m1 = 0.1028 | 810.527 ± 0.17 | 805.836 ± 0.17 | 801.14 ± 0.17 | 796.431 ± 0.17 | 791.701 ± 0.17 | 786.964 ± 0.18 | 782.194 ± 0.18 | 1103.4 ± 1.2
m1 = 0.1172 | 811.93 ± 0.17 | 807.238 ± 0.17 | 802.543 ± 0.17 | 797.833 ± 0.17 | 793.105 ± 0.17 | 788.352 ± 0.18 | 783.59 ± 0.18 | 1103.6 ± 1.2
m1 = 0.1463 | 814.771 ± 0.17 | 810.077 ± 0.17 | 805.377 ± 0.17 | 800.668 ± 0.17 | 795.947 ± 0.17 | 791.201 ± 0.18 | 786.428 ± 0.18 | 1104 ± 1.2
m1 = 0.1743 | 817.509 ± 0.17 | 812.812 ± 0.17 | 808.112 ± 0.17 | 803.401 ± 0.17 | 798.671 ± 0.17 | 793.913 ± 0.18 | 789.143 ± 0.18 | 1104.6 ± 1.2
m1 = 0.2027 | 820.305 ± 0.17 | 815.606 ± 0.17 | 810.904 ± 0.17 | 806.19 ± 0.17 | 801.46 ± 0.17 | 796.713 ± 0.18 | 791.938 ± 0.18 | 1105 ± 1.2
m1 = 0.2301 | 823.038 ± 0.17 | 818.338 ± 0.17 | 813.634 ± 0.17 | 808.917 ± 0.17 | 804.185 ± 0.17 | 799.436 ± 0.17 | 794.66 ± 0.18 | 1105.2 ± 1.2
m1 = 0.2574 | 825.732 ± 0.17 | 821.028 ± 0.17 | 816.321 ± 0.17 | 811.601 ± 0.17 | 806.867 ± 0.17 | 802.106 ± 0.17 | 797.321 ± 0.18 | 1105.4 ± 1.2
m1 = 0.2861 | 828.58 ± 0.17 | 823.872 ± 0.17 | 819.161 ± 0.17 | 814.439 ± 0.17 | 809.7 ± 0.17 | 804.938 ± 0.17 | 800.15 ± 0.18 | 1105.6 ± 1.2

O=S(=O)([O-])C(F)(F)F.[Na+] [sodium trifluoromethanesulfonate] + C[S+](C)[O-]
Conditions | mass density, 293.15 K [kg/m3] | mass density, 298.15 K [kg/m3] | mass density, 303.15 K [kg/m3] | mass density, 313.15 K [kg/m3] | mass density, 323.15 K [kg/m3] | mass density, 333.15 K [kg/m3] | speed of sound, 298.15 K [m/s]
m1 = 0.02641 | 1102.59 ± 0.18 | 1097.57 ± 0.18 | 1092.55 ± 0.18 | 1082.51 ± 0.18 | 1072.47 ± 0.6 | 1062.44 ± 0.57 | –
m1 = 0.0331 | 1103.2 ± 0.18 | 1098.17 ± 0.18 | 1093.52 ± 0.18 | 1083.11 ± 0.18 | 1073.08 ± 0.17 | 1063.05 ± 0.17 | –
m1 = 0.04651 | 1104.41 ± 0.18 | 1099.38 ± 0.18 | 1094.37 ± 0.17 | 1084.33 ± 0.18 | 1074.31 ± 0.17 | 1064.27 ± 0.17 | 1482.7 ± 1.3
m1 = 0.06041 | 1105.66 ± 0.18 | 1100.64 ± 0.18 | 1095.62 ± 0.18 | 1085.59 ± 0.18 | 1075.56 ± 0.18 | 1065.53 ± 0.17 | 1482.2 ± 1.3
m1 = 0.0788 | 1107.34 ± 0.19 | 1102.31 ± 0.18 | 1097.29 ± 0.18 | 1087.27 ± 0.18 | 1077.24 ± 0.18 | 1067.21 ± 0.17 | 1481.6 ± 1.3
m1 = 0.09603 | 1108.91 ± 0.19 | 1103.88 ± 0.18 | 1098.86 ± 0.18 | 1088.84 ± 0.18 | 1078.81 ± 0.18 | 1068.79 ± 0.17 | 1481 ± 1.3
m1 = 0.1218 | 1111.26 ± 0.19 | 1106.23 ± 0.19 | 1101.22 ± 0.19 | 1091.19 ± 0.18 | 1081.17 ± 0.18 | 1071.16 ± 0.18 | 1480.1 ± 1.3
m1 = 0.1568 | 1114.49 ± 0.19 | 1109.45 ± 0.19 | 1104.45 ± 0.19 | 1094.42 ± 0.18 | 1084.4 ± 0.18 | 1074.39 ± 0.18 | 1479 ± 1.3
m1 = 0.1917 | 1117.71 ± 0.2 | 1112.68 ± 0.19 | 1107.66 ± 0.19 | 1097.64 ± 0.19 | 1087.62 ± 0.18 | 1077.62 ± 0.18 | 1477.6 ± 1.3
m1 = 0.2205 | 1120.39 ± 0.2 | 1115.36 ± 0.2 | 1110.33 ± 0.19 | 1100.32 ± 0.19 | 1090.31 ± 0.19 | 1080.3 ± 0.18 | 1476.5 ± 1.3
m1 = 0.2625 | 1124.33 ± 0.2 | 1119.3 ± 0.2 | 1114.27 ± 0.2 | 1104.24 ± 0.19 | 1094.22 ± 0.19 | 1084.21 ± 0.19 | 1475 ± 1.3
m1 = 0.2925 | – | – | – | – | – | – | 1473.9 ± 1.3

[O-][Cl+3]([O-])([O-])[O-].[O-][Cl+3]([O-])([O-])[O-].[Sr+2] [strontium perchlorate] + CO
Conditions | mass density, 283.15 K [kg/m3] | mass density, 288.15 K [kg/m3] | mass density, 293.15 K [kg/m3] | mass density, 298.15 K [kg/m3] | mass density, 303.15 K [kg/m3] | mass density, 308.15 K [kg/m3] | mass density, 313.15 K [kg/m3] | speed of sound, 298.15 K [m/s]
m1 = 0.06323 | 814.327 ± 0.26 | 809.615 ± 0.26 | 804.898 ± 0.26 | 800.168 ± 0.26 | 795.42 ± 0.26 | 790.66 ± 0.26 | 785.866 ± 0.26 | 1108 ± 1.2
m1 = 0.07864 | 817.708 ± 0.26 | 812.989 ± 0.26 | 808.269 ± 0.26 | 803.533 ± 0.26 | 798.779 ± 0.26 | 794.012 ± 0.26 | 789.214 ± 0.26 | 1109.7 ± 1.2
m1 = 0.09378 | 821.019 ± 0.26 | 816.297 ± 0.26 | 811.567 ± 0.26 | 806.826 ± 0.26 | 802.074 ± 0.26 | 797.297 ± 0.26 | 792.492 ± 0.26 | 1111.1 ± 1.2
m1 = 0.1093 | 824.484 ± 0.26 | 819.755 ± 0.26 | 815.021 ± 0.26 | 810.274 ± 0.26 | 805.504 ± 0.26 | 800.727 ± 0.26 | 795.92 ± 0.26 | 1112.6 ± 1.2
m1 = 0.1234 | 827.609 ± 0.26 | 822.874 ± 0.26 | 818.133 ± 0.26 | 813.381 ± 0.26 | 808.608 ± 0.26 | 803.819 ± 0.26 | 799.011 ± 0.26 | 1114 ± 1.2
m1 = 0.154 | 834.44 ± 0.26 | 829.692 ± 0.26 | 824.939 ± 0.26 | 820.172 ± 0.26 | 815.389 ± 0.26 | 810.594 ± 0.26 | 805.771 ± 0.26 | 1116.9 ± 1.2
m1 = 0.1834 | 841.064 ± 0.27 | 836.304 ± 0.27 | 831.54 ± 0.27 | 826.763 ± 0.27 | 821.965 ± 0.27 | 817.158 ± 0.27 | 812.326 ± 0.27 | 1120 ± 1.2
m1 = 0.2113 | 847.498 ± 0.27 | 842.723 ± 0.27 | 837.945 ± 0.27 | 833.161 ± 0.27 | 828.36 ± 0.27 | 823.539 ± 0.27 | 818.693 ± 0.27 | 1122.7 ± 1.2
m1 = 0.2388 | 853.778 ± 0.27 | 848.993 ± 0.27 | 844.206 ± 0.27 | 839.406 ± 0.27 | 834.589 ± 0.27 | 829.75 ± 0.27 | 824.9 ± 0.27 | 1125.5 ± 1.2
m1 = 0.266 | 860.252 ± 0.27 | 855.456 ± 0.27 | 850.654 ± 0.27 | 845.848 ± 0.27 | 841.026 ± 0.27 | 836.183 ± 0.27 | 831.317 ± 0.27 | 1128.2 ± 1.2
m1 = 0.2946 | 867.084 ± 0.27 | 862.275 ± 0.27 | 857.464 ± 0.27 | 852.642 ± 0.27 | 847.803 ± 0.27 | 842.939 ± 0.27 | 838.069 ± 0.27 | 1131.4 ± 1.2
